The numbers were not newly measured in US10052384B2, “Liquid antiseptic compositions containing iodine and a sugar and/or sugar alcohol” (3M INNOVATIVE PROPERTIES COMPANY, priority 2007, dated 2018), which cites them from elsewhere.

For the series the following is noted: 25° C.

For `II` [elemental iodine], the Solubility in water is 0.03 wt-%.
